Literature values in US10324098B2, “T2R taste receptors and genes encoding same” (SENOMYX, INC., priority 2000, dated 2019).

Key:
human T2R4 = target: T1, human T2R4 (Homo sapiens, UniProt Q9NYW5)
T1 sequence (Q9NYW5 1-299): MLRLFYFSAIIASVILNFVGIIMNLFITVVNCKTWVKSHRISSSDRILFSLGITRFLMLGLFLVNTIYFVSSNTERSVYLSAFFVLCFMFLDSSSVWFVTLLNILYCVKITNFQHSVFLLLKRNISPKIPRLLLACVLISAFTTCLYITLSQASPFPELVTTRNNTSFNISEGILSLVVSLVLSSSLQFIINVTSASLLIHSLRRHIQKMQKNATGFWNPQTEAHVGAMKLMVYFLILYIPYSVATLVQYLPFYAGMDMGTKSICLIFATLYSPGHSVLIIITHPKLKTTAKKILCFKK

mouse T2R8 = target: T2, mouse T2R8 (Mus musculus, UniProt Q9JKT3)
T2 sequence (Q9JKT3 1-297): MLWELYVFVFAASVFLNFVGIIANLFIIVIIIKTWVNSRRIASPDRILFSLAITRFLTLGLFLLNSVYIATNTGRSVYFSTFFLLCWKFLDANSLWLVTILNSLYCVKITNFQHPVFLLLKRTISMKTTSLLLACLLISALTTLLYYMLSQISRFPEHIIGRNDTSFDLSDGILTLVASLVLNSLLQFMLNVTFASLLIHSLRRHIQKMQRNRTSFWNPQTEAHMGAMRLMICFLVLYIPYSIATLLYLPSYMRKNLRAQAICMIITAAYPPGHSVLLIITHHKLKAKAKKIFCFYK

mouse T2R5 [1] = target: T3, mouse T2R5 (Mus musculus, UniProt Q9JKT4)
T3 sequence (Q9JKT4 1-300): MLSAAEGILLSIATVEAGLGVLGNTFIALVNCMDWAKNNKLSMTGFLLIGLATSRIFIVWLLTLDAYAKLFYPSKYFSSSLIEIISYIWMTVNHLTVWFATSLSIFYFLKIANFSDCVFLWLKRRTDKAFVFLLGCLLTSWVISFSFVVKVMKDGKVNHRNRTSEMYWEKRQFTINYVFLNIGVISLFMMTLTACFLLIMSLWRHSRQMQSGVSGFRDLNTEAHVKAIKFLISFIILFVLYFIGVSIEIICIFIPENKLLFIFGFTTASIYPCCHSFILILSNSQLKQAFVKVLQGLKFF

mouse T2R5 [2] = target: T3, mouse T2R5; conditions: mouse T2R5, G Protein gustducin

Row | Compound | receptor responsive to tastant (human T2R4) | receptor responsive to tastant (mouse T2R8) | receptor receptive to tastant (mouse T2R5 [1]) | ligand dependent coupling with gustducin (mouse T2R5 [2])
1 | CC[N+](CC)(CC(=O)Nc1c(C)cccc1C)Cc1ccccc1 [denatonium] | specifically responsive | specifically responsive |  | 
2 | C[C@@H]1C[C@@H]([C@H](O)CC2CC(=O)NC(=O)C2)C(=O)[C@@H](C)C1 [cycloheximide] |  |  | specifically receptive | strong cycloheximide dependent coupling with gustducin
3 | CCCc1cc(=O)[nH]c(=S)[nH]1 [PROP, 6-n-propylthiouracil] | specifically responsive | specifically responsive |  | 
